Values after ≈ are worked out from the molar mass of the structure shown. Where two headings read alike, the source gives them in different places. Where a SMILES comes first, the peptide text is derived from it. [ ]: non-standard residue; d: D form. The star is where a group is joined. Fumaryl(OMe) = COC(=O)/C=C/C(=O)*; Dap = NC[C@H](N)C(=O)O
Legend:
Format in all cases: cell-based, Candida albicans
C. albicans SC 5314 = experiment: Disc diffusion method; settings: YNB-AS agar, 10 μg of peptide on a disc (10 μL of 1 mg mL^-1), 48 h, 30°C
Experimental: (§1) Candida albicans cells, apparently resistant to FMDP-peptides, were isolated from the individual colonies formed on the surface of YNB-SG agar medium containing FMDP-peptide, 10 μg mL^-1 or within the growth inhibitory zones around the paper discs saturated with 10 μL of the FMDP-peptide solution, 1 mg mL^-1. In both versions, the agar surface was inoculated with 10^5 cells from the overnight culture in YPD medium, washed three times with sterile water, suspended in 0.2 mL of sterile water and the cell suspension was spread on the whole surface with a sterile glass rod. Plates were incubated for 48 h at 30°C and isolated colonies were picked with a platinum loop.
(§2) Growth inhibitory activity of FMDP-oligopeptides against C. albicans SC 5314 was also determined by the disc diffusion method. […] Cells grown in these colonies were collected, re-grown in YNB-AS and tested for sensitivity to FMDP-oligopeptides.
FIGURE 3 Disc diffusion activity determination of FMDP-oligopeptides. YNB-AS agar medium, 10 μg of each peptide applied on a disc. (A) F2; (B) F3; (C) F6; (D) F7; (E) F11.

C. albicans isolate LNF3 = settings: YNB-SG medium
Source text: (§3) The in vitro growth inhibitory activity of antifungals was quantified by determination of minimal inhibitory concentration (MIC) values by the serial twofold dilution method, using the 96-well microtiter plates in three media: buffered RPMI-1640, YNB-AS, and YNB-SG. Conditions of the RPMI-1640-based assay were the same as outlined in the CLSI recommendations ([Clinical Laboratory Standards Institute, 2008]), except for the end-point readout that was done by spectrophotometric determination of cell density at 531 nm. Turbidity in individual wells was measured with a microplate reader (Victor^3; Perkin Elmer). MIC was defined as the lowest drug concentration that gave at least an 80% decrease in turbidity, relative to that of the drug-free growth control.
(§4) The 96-well microtiter plates were also used for determination of in vitro growth inhibitory activity in YPD and YNB-based media. Individual wells were inoculated with 5 × 10^3 cfu mL^-1 of C. albicans cells from the overnight culture in YPD medium. The inoculated plates were incubated 37°C for 24 h and then turbidity was measured with a microplate reader at 531 nm, as described above for the RPMI-1640-based assay.
as §1, §2

C. albicans isolate NF1 = settings: YNB-SG medium
Source text: as §3, §4, §1, §2

C. albicans isolate LNF2 = settings: YNB-SG medium
Source text: as §3, §4, §1, §2

C. albicans isolate NF3 = settings: YNB-SG medium
Source text: as §3, §4, §1, §2

C. albicans isolate LNF1 = settings: YNB-SG medium
Source text: as §3, §4, §1, §2

C. albicans isolate NF2 = settings: YNB-SG medium
Source text: as §3, §4, §1, §2

C. albicans ptr2Δ ptr22Δ = settings: turbidity 531 nm, at least 80% decrease
Experimental: (§5) Strains were grown at 30°C in YPD medium (1% yeast extract, 2% peptone, and 2% glucose) and stored on YPD plates containing 2% agar. Susceptibility testing was performed in YPD and other three media: (a) RPMI-1640 w/o sodium bicarbonate, with L-glutamine + 2% glucose + 3.45% MOPS, pH adjusted to 7.0; (b) YNB-AS—Yeast Nitrogen Base w/o amino acids (contains ammonium sulfate 5 g L^-1) + 2% glucose; (c) YNB-SG—Yeast Nitrogen Base w/o amino acids and ammonium sulfate + 2% glucose + 0.2 g L^-1 sodium glutamate. In their solid version, used for the mutant generation and isolation, YNB-AS and YNB-SG contained 2% agar.
as §3, §4

C. albicans opt1Δ = settings: turbidity 531 nm, at least 80% decrease
Experimental: as §5, §3, §4

[1] = test system: C. albicans opt1–opt5Δ ptr2Δ ptr22Δ; settings: turbidity 531 nm, at least 80% decrease
Experimental: as §5, §3, §4

C. albicans SC5314 = test system: C. albicans SC5314
Experimental: as §5, §3, §4

C. albicans opt2Δ opt3Δ = settings: turbidity 531 nm, at least 80% decrease
Experimental: as §5, §3, §4

C. albicans opt4Δ = settings: turbidity 531 nm, at least 80% decrease
Experimental: as §5, §3, §4

C. albicans opt5Δ = settings: turbidity 531 nm, at least 80% decrease
Experimental: as §5, §3, §4

C. albicans opt1–opt5Δ = settings: turbidity 531 nm, at least 80% decrease
Experimental: as §5, §3, §4

[2] = RPMI-1640 medium, MOPS pH 7.0, CLSI conditions

COC(=O)/C=C/C(=O)NC[C@H](NC(=O)[C@H](CCSC)NC(=O)[C@@H](NC(=O)[C@@H]1CCCN1C(=O)[C@H](CC(C)C)NC(=O)[C@@H](N)CCCCN)C(C)C)C(=O)O [Peptide F6, Lys-Leu-Pro-Val-Met-FMDP] (H-KLPVM[Dap](Fumaryl(OMe))-OH; N-terminus and C-terminus assumed)
Appearance of growth inhibitory zone (C. albicans SC 5314): clear
MIC (C. albicans isolate LNF3): 4 µg/mL (≈ 5.1 µM)
MIC (C. albicans isolate NF1): 4 µg/mL (≈ 5.1 µM)
MIC (C. albicans isolate LNF2): 8 µg/mL (≈ 10.2 µM)
MIC (C. albicans isolate NF3): 4 µg/mL (≈ 5.1 µM)
MIC (C. albicans isolate LNF1): 4 µg/mL (≈ 5.1 µM)
MIC (C. albicans isolate NF2): 4 µg/mL (≈ 5.1 µM)
MIC (C. albicans ptr2Δ ptr22Δ; [2]): >128 µg/mL
MIC (C. albicans ptr2Δ ptr22Δ; YNB-AS medium, 37°C, 24 h): 4 µg/mL (≈ 5.1 µM)
MIC (C. albicans ptr2Δ ptr22Δ; YNB-SG medium, 37°C, 24 h): 0.5 µg/mL (≈ 0.637 µM)
MIC (C. albicans opt1Δ; [2]): >128 µg/mL
MIC (C. albicans opt1Δ; YNB-AS medium, 37°C, 24 h): 8 µg/mL (≈ 10.2 µM)
MIC (C. albicans opt1Δ; YNB-SG medium, 37°C, 24 h): 4 µg/mL (≈ 5.1 µM)
MIC [1, 2]: >128 µg/mL
MIC ([1]; YNB-AS medium, 37°C, 24 h): >128 µg/mL
MIC ([1]; YNB-SG medium, 37°C, 24 h): 64 µg/mL (≈ 81.5 µM)
MIC (C. albicans SC5314; SC 5314, RPMI-1640 medium, MOPS pH 7.0, CLSI conditions, turbidity 531 nm, at least 80% decrease): >128 µg/mL
MIC (C. albicans SC5314; SC 5314, YNB + L-Gln (0.3 g L^-1) pH 5.0): 4.0 µg/mL
MIC (C. albicans SC5314; SC 5314, YNB + L-Gln (0.3 g L^-1) pH 7.0): 128 µg/mL
MIC (C. albicans SC5314; SC 5314, YNB + amino acid mixture (composition as in RPMI-1640)): >128 µg/mL
MIC (C. albicans SC5314; SC 5314, YNB-AS medium, 5 × 10^3 cfu mL^-1, 37°C, 24 h, turbidity 531 nm, at least 80% decrease): 4 µg/mL (≈ 5.1 µM)
MIC (C. albicans SC5314; SC5314, YNB-SG medium (Table 8)): 4 µg/mL (≈ 5.1 µM)
MIC (C. albicans SC5314; SC 5314, YNB-SG medium, 5 × 10^3 cfu mL^-1, 37°C, 24 h, turbidity 531 nm, at least 80% decrease): 0.5 µg/mL (≈ 0.637 µM)
MIC (C. albicans SC5314; SC 5314, growth medium YNB-SG (Table 6)): 0.5 µg/mL (≈ 0.637 µM)
Increase of MICs in presence of Ala-Ala-Ala-Ala (C. albicans SC5314; YNB-SG + Ala-Ala-Ala-Ala 1 g L^-1): 16- to 64 fold
Effect of supplementation with Ala-Ala or Ala-Ala-Ala on activity (C. albicans SC5314; YNB-based media + Ala-Ala or Ala-Ala-Ala, 1 g L^-1, 'similar effect' = complete elimination of activity as with Bacto Peptone): no effect
MIC in YNB-AS, times higher than in YNB-SG (C. albicans SC5314; wild type SC5314): 8–16 times
MIC (C. albicans opt2Δ opt3Δ; [2]): >128 µg/mL
MIC (C. albicans opt2Δ opt3Δ; YNB-AS medium, 37°C, 24 h): 32 µg/mL (≈ 40.8 µM)
MIC (C. albicans opt2Δ opt3Δ; YNB-SG medium, 37°C, 24 h): 32 µg/mL (≈ 40.8 µM)
MIC (C. albicans opt4Δ; [2]): >128 µg/mL
MIC (C. albicans opt4Δ; YNB-AS medium, 37°C, 24 h): 8 µg/mL (≈ 10.2 µM)
MIC (C. albicans opt4Δ; YNB-SG medium, 37°C, 24 h): 8 µg/mL (≈ 10.2 µM)
MIC (C. albicans opt5Δ; [2]): >128 µg/mL
MIC (C. albicans opt5Δ; YNB-AS medium, 37°C, 24 h): 8 µg/mL (≈ 10.2 µM)
MIC (C. albicans opt5Δ; YNB-SG medium, 37°C, 24 h): 4 µg/mL (≈ 5.1 µM)
MIC (C. albicans opt1–opt5Δ; [2]): >128 µg/mL
MIC (C. albicans opt1–opt5Δ; YNB-AS medium, 37°C, 24 h): >128 µg/mL
MIC (C. albicans opt1–opt5Δ; YNB-SG medium, 37°C, 24 h): 64 µg/mL (≈ 81.5 µM)
